In US20060122260A1, “Intermediates for aromatic polyketides as selective anticancer and antiviral agents” (priority 2002, published 2006):
≈ marks a conversion by molar mass, not a printed value. Entries after “also recorded” stand apart in the source; their conditions may differ.

Key:
[1] = system: uninfected cells; assay: Cytotoxicity in the parvovirus model; conditions: for effect on uninfected cells: parvovirus model
[2] = system: herpes simplex (HSV); assay: Activity testing in human virus models: HSV; assay type: cell-based, herpes simplex virus; conditions: for activity against virus: HSV, concentrations tested 1 μM and 100 μM; for inhibition % 100 μM / inhibition at 1 µM: Herpes (HSV); for inhibition at 1 µM: Homo sapiens
Procedure: (§1) The results obtained from the parvovirus model encouraged us to carry out the bioactivity tests using human viruses as targets. Selected RNA- and DNA-viruses were tested; herpes simplex (HSV), adenovirus, influenza B, RS virus, cytomegalovirus (CMV), and CBV5 virus. […] The concentrations tested were 1 μM and 100 μM. The cytotoxic effect was not found using 1 μM of S2502 or S2507. Instead, 100 μM of S2502 was toxic to the cells used for CBV5 and HSV infection, and 100 μM of S2507 was toxic to the cells used for HSV infection.
(§2) S2507 and S2502 were further tested in human virus models: herpes simplex (HSV), adenovirus, influenza B, RS virus, cytomegalovirus and CBV5 virus. […] The compounds were active when administered simultaneously or before an infection (prophylactic) and half an hour after the infection. […] However, in HSV 100 μM concentration was toxic.

[3] = system: CBV5 virus; assay: Activity testing in human virus models: CBV5; assay type: cell-based; conditions: for inhibition at 1 µM: CBV5, 1 μM; for activity against virus: CBV5 virus, concentrations tested 1 μM and 100 μM
Procedure: as §1, §2

[4] = system: adenovirus; assay: Activity testing in human virus models: adenovirus; assay type: cell-based; conditions: for activity against virus: adenovirus, concentrations tested 1 μM and 100 μM; for inhibition at 1 µM / inhibition at 100 µM: unidentified adenovirus, Adeno
Procedure: as §1, §2

[5] = target: T1, human topoisomerase I (Homo sapiens, UniProt P11387); assay: Topoisomerase I drug screening kit; assay type: biochemical
T1 construct: purchased TopoGEN, Inc, Columbus, Ohio
T1 sequence (P11387 1-765): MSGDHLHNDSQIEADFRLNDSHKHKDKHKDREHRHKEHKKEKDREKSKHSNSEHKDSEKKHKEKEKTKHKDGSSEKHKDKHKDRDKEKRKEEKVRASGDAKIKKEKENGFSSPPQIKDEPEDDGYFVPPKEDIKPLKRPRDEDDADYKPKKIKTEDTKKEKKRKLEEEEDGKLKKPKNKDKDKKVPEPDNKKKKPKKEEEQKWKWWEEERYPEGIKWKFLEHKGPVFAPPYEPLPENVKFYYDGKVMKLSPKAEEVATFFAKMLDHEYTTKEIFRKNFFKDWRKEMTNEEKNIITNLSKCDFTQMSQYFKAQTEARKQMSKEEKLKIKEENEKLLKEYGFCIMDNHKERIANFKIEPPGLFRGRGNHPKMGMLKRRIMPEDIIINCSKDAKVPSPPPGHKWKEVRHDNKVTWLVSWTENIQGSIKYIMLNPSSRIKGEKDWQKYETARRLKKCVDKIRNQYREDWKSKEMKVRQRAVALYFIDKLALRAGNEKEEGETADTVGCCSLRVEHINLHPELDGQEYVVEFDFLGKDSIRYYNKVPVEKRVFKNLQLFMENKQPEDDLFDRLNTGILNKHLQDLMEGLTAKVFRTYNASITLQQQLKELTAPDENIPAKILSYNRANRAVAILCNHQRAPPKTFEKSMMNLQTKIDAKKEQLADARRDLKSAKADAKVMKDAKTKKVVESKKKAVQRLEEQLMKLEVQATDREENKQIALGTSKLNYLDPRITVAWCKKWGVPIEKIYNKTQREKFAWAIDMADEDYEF
Procedure: (§3) In order to understand the mechanism of anticancer activity, the inhibition of topoisomerases by S2502 was studied. The topoisomerase assays were done using Topoisomerase I and II drug screening kits with human topoisomerase I and II (p170 form) enzymes, respectively, according to the manufacturer's (TopoGEN, Inc, Columbus, Ohio) instructions. […] Minimal inhibitory concentrations were 25 μM against Topoisomerase 1 and 50 μM against Topoisomerase II.

[6] = system: influenza B; assay: Activity testing in human virus models: influenza B; assay type: cell-based; conditions: for inhibition at 1 µM / inhibition at 100 µM: Influenza B virus, Influenza B; for activity against virus: influenza B, concentrations tested 1 μM and 100 μM
[7] = Stability; assay type: physicochemical; conditions: for stability in purification process and bioassays: typical conditions used in the purification process and in bioassays
Text: It is the methyl ester of the S2507 acid.

[8] = system: control cultivations without virus; assay: Cytotoxic effect on cells in the human virus tests (control cultivations without virus); conditions: for cytotoxic effect: 1 μM; for tolerance of control cultivations without virus: utilized drug concentrations (100 and 1 μM)
[9] = system: MES-SA/Dx5; assay: Typical cytotoxicity screen, MES-SA/Dx5
[10] = system: cells used for CBV5 infection; assay: Toxicity to cells used for CBV5 infection; assay type: cell-based; conditions: 100 μM
Procedure: as §1

[11] = system: melanoma cell lines (MAL-ME-3M, M14, SK-MEL-5); assay: NCI 60-cell line panel, melanoma cell lines; assay type: cell-based, human; conditions: some melanoma cell lines
Text: National Cancer Institute (NCI) tested both of the compounds in their 60-cell line panel (copy of their report available). NCI uses a 48-hour continuous drug exposure protocol. Cell viability and growth are estimated using a sulforhodamine B (SRB) protein assay. The screen is described on the web site: http://dtp.nci.nih.gov. […] However, a mean value of ED50 is at micro molar range against some melanoma cell lines (MAL-ME-3M, M14, SK-MEL-5).

[12] = system: MES-SA; assay: Typical cytotoxicity screen, MES-SA
[13] = target: T2, human topoisomerase II (p170 form) (Homo sapiens, UniProt P11388); assay: Topoisomerase II drug screening kit; assay type: biochemical
T2 construct: purchased TopoGEN, Inc, Columbus, Ohio
T2 sequence (P11388 whole entry): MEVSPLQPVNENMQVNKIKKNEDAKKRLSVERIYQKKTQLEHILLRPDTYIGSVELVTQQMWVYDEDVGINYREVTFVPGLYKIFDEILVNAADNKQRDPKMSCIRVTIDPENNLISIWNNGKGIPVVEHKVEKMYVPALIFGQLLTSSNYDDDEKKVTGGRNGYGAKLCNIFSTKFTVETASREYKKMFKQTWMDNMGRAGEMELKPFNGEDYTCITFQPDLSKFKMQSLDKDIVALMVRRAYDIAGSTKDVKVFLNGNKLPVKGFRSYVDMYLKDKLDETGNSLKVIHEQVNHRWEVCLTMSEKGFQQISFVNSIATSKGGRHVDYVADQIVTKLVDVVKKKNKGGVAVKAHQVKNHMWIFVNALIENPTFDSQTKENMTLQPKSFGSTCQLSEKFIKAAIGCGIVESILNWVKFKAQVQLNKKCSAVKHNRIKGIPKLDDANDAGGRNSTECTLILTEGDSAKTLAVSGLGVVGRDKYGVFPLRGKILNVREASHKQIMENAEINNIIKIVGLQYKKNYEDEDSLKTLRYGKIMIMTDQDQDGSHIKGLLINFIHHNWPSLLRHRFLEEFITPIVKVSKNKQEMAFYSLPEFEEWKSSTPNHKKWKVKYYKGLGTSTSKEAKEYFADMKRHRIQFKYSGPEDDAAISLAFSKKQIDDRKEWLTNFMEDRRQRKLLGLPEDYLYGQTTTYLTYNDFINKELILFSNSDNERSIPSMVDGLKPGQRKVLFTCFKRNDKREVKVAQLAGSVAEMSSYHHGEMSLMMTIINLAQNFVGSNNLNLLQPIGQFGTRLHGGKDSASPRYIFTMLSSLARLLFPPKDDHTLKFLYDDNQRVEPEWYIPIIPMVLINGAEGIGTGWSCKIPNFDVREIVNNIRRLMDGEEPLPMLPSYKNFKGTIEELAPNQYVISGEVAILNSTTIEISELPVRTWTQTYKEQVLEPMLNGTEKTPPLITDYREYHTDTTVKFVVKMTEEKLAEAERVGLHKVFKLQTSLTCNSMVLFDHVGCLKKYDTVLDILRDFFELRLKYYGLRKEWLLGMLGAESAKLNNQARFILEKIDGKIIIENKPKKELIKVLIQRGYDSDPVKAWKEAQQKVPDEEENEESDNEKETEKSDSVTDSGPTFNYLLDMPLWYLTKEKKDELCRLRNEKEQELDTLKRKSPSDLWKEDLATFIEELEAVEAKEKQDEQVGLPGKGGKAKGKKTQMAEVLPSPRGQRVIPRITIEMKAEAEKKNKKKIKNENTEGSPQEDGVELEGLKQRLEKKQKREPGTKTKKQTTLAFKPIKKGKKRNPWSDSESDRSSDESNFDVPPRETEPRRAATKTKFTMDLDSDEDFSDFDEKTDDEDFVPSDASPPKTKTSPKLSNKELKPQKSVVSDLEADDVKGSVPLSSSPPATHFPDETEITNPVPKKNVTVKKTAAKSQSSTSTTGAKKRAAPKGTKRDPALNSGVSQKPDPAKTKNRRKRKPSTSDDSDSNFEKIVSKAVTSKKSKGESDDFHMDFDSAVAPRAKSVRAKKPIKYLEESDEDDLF
Procedure: as §3

[14] = system: cytomegalovirus (CMV); assay: Activity testing in human virus models: cytomegalovirus; assay type: cell-based; conditions: for activity against virus: CMV, concentrations tested 1 μM and 100 μM; for inhibition at 1 µM / inhibition at 100 µM: Human betaherpesvirus 5, Cytomegalo
Procedure: as §1, §2

[15] = system: Canine parvovirus type 2 (CPV-d); assay: Parvovirus infectivity screening (animal virus model); assay type: cell-based; conditions: for antiviral activity against parvovirus (inhibition of infection of cells): drug added simultaneously with CPV, 24 h p.i.
[16] = system: cells used for HSV infection; assay: Toxicity to cells used for HSV infection; assay type: cell-based; conditions: 100 μM
Procedure: as §1, §2

[17] = system: RS virus; assay: Activity testing in human virus models: RS virus; assay type: cell-based; conditions: for activity against virus: RS virus, concentrations tested 1 μM and 100 μM; for inhibition at 1 µM / inhibition at 100 µM: human respiratory syncytial virus, RSV
Procedure: as §1, §2

[18] = system: mice; assay: In vivo toxicity, preliminary dose range finding study; conditions: single i.p. 100, 50, 25, 12.5 and 6.25 mg/kg, two weeks
Procedure: The drug was injected once i.p. at doses 100, 50, 25, 12.5 and 6.25 mg/kg to two mice at each dose level. The mice were observed daily and weighed every 3 to 5 days for two weeks.

[19] = pKa; assay type: physicochemical; conditions: comparable to acetic acid

Row | SMILES | effect on uninfected cells [1] | activity against virus [2] | inhibition % 100 μM [2] | inhibition at 1 µM [2] | inhibition at 1 µM [3] | activity against virus [3] | activity against virus [4] | inhibition at 1 µM [4] | inhibition at 100 µM [4] | solubility to water at pH 7 | inhibition at 1 µM [6] | inhibition at 100 µM [6] | activity against virus [6] | stability under normal laboratory conditions [7] | stability in purification process and bioassays [7] | cytotoxic effect [8] | tolerance of control cultivations without virus [8] | anticancer activity (cytotoxicity screen) [9] | activity against melanoma cell lines [11] | anticancer activity (cytotoxicity screen) [12] | further results
1 | COC(=O)CC1Cc2cc3cccc(O)c3c3c2C(=C/C(=C/C(C)=O)O3)O1 (stereo not drawn) [S2502] | without disturbing the uninfected cells | active | toxic | 100% | 100% | active | active | 90% | 100% | not soluble | 100% | 100% | active | stable and non-reactive | stable | not found | tolerated well | fail to show anticancer activity | active against some melanoma cell lines | fail to show anticancer activity | inhibition % 100 μM ([3]; CBV5, 100 μM): toxic; Minimal inhibitory concentration [5]: 25 µM (≈ 9.16 µg/mL); toxicity to cells [10]: toxic; Minimal inhibitory concentration [13]: 50 µM (≈ 18.3 µg/mL); activity against virus [14]: active; inhibition at 1 µM [14]: 100%; inhibition at 100 µM [14]: 100%; antiviral activity against parvovirus (inhibition of infection of cells) [15]: remarkable antiviral activity; also recorded: partially inhibit the infection; toxicity to cells [16]: toxic; activity against virus [17]: active; inhibition at 1 µM [17]: 100%; inhibition at 100 µM [17]: 100%
2 | CC(=O)/C=C1/C=C2OC(CC(=O)O)Cc3cc4cccc(O)c4c(c32)O1 (stereo not drawn) [S2507] | without disturbing the uninfected cells | active | toxic | 100% | 100% | active | active | 90% | 100% | slightly soluble | 100% | 100% | active | stable and non-reactive | stable | not found | tolerated well | fail to show anticancer activity | active against some melanoma cell lines | fail to show anticancer activity | cytotoxic properties ([1]; highest concentration studied, 500 nM): did not exhibit cytotoxic properties; inhibition at 100 µM ([3]; CBV5, 100 μM): 100%; effect on the weight of the mice [18]: no effect; outer signs of general illness [18]: no outer signs of general illness were noticed; activity against virus [14]: only S2502 was active against CMV; inhibition at 1 µM [14]: 0%; inhibition at 100 µM [14]: 0%; effect on parvovirus over concentration range ([15]; 5 nM to 500 nM): dose-activity correlation; antiviral activity against parvovirus (inhibition of infection of cells) [15]: remarkable antiviral activity; also recorded: partially inhibit the infection; pKa [19]: ~4.6; toxicity to cells [16]: toxic; activity against virus [17]: active; inhibition at 1 µM [17]: 100%; inhibition at 100 µM [17]: 100%
